T/C data for 19 compounds are collected here from PubChem BioAssay AID330 (DTP/NCI, 2004).

Several values for one entry are separate records, joined by “and”; a condition that tells them apart may be missing. Equal values may be shown once. Toxic doses and inconclusive results are not listed.

The assay concerns P388 leukemia ip, CD2F1 mice, survival T/C. Nature of the assay: NCI In Vivo Anticancer Drug Screen. Data for tumor model P388 Leukemia (intraperitoneal) in CD2F1 (CDF1) mice. The conditions noted are these: endpoint: median survival time, higher = longer survival. Summed up:
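Mice carrying the transplanted tumor received test compound or vehicle. Survival was recorded in each group, and the value is the treated-group measurement divided by that of the vehicle-treated control group.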

The mark [1] stands for this setting: dose: 50.0 mg/kg/injection, schedule: Q01DX009 (ip), vehicle: saline.
Where [2] appears, read: dose: 100.0 mg/kg/injection, schedule: Q01DX009 (ip), vehicle: saline.
[3] abbreviates: dose: 50.0 mg/kg/injection, schedule: Q01DX005 (ip), vehicle: Klucel (hydroxypropylcellulose) (HPC).
Where [4] appears, read: dose: 100.0 mg/kg/injection, schedule: Q01DX005 (ip), vehicle: Klucel (hydroxypropylcellulose) (HPC).
The mark [5] stands for this setting: dose: 200.0 mg/kg/injection, schedule: Q01DX005 (ip), vehicle: Klucel (hydroxypropylcellulose) (HPC).
The mark [6] stands for this setting: dose: 50.0 mg/kg/injection, schedule: Q01DX009 (ip), vehicle: Klucel (hydroxypropylcellulose) (HPC).
Setting [7] is: dose: 100.0 mg/kg/injection, schedule: Q01DX009 (ip), vehicle: Klucel (hydroxypropylcellulose) (HPC).
[8] abbreviates: dose: 200.0 mg/kg/injection, schedule: Q01DX009 (ip), vehicle: Klucel (hydroxypropylcellulose) (HPC).
The mark [9] stands for this setting: dose: 50.0 mg/kg/injection, schedule: Q01DX009 (ip), vehicle: saline with Tween-80.

For `NC(N)=NCC1CCCCCCN1` (configuration not stated), the T/C by setting is: (dose: 12.5 mg/kg/injection, schedule: Q01DX009 (ip), vehicle: saline) 106 % of control; (dose: 25.0 mg/kg/injection, schedule: Q01DX009 (ip), vehicle: saline) 100 % of control; under setting [1], 104 % of control; under setting [2], 104 % of control.
As to `COC(=O)C1C(NCc2ccccc2)=CC(C)(C)C(C(=O)OC)C1c1ccccc1` (configuration not stated), the T/C under setting [3] is 103 % of control, the T/C under setting [4] is 100 % of control and the T/C under setting [5] was 97 % of control.
As for `C=C1CC2(CC(C)CCC2C(=C)C)OC1=O` (configuration not stated), the T/C runs as follows: (dose: 100.0 mg/kg/injection, schedule: Q01DX001 (ip), vehicle: saline) 101 % of control; (dose: 200.0 mg/kg/injection, schedule: Q01DX001 (ip), vehicle: saline) 102 % of control; (dose: 400.0 mg/kg/injection, schedule: Q01DX001 (ip), vehicle: saline) 99 % of control.
For `O=C1NC(=O)N2CC(CBr)OC2C1c1ccccc1` (configuration not stated), the T/C reads like this: under setting [6], 101 % of control; under setting [7], 100 % of control; under setting [8], 100 % of control.
For `CCOC(=O)c1ccc(NC(=O)Oc2ccc(C(=O)OC)cc2)cc1`, the T/C (dose: 60.0 mg/kg/injection, schedule: Q01DX005 (ip), vehicle: saline with Tween-80) is 103 % of control; the T/C (dose: 120.0 mg/kg/injection, schedule: Q01DX005 (ip), vehicle: saline with Tween-80) is 100 % of control; the T/C (dose: 240.0 mg/kg/injection, schedule: Q01DX005 (ip), vehicle: saline with Tween-80) is 103 % of control.
With `OCCN1CN(c2ccccc2)C(=S)N(c2ccccc2)C1`, the T/C was 97 % of control under setting [9]; 100 % of control (dose: 100.0 mg/kg/injection, schedule: Q01DX009 (ip), vehicle: saline with Tween-80); 93 % of control (dose: 200.0 mg/kg/injection, schedule: Q01DX009 (ip), vehicle: saline with Tween-80).
In the case of `Cc1nc2c(c(-c3ccc(Cl)cc3)n1)Cc1c(ccc3ccccc13)O2`, the T/C was 107 % of control and 95 % of control under setting [1]; 100 % of control under setting [2]; 100 % of control and 94 % of control (dose: 200.0 mg/kg/injection, schedule: Q01DX009 (ip), vehicle: saline).
Turning to `CCOC(=O)/C(C#N)=N/Nc1ccc2cn[nH]c2c1`, the T/C is 99 % of control under setting [3], 94 % of control under setting [4] and 97 % of control under setting [5].
As to `Cc1ccc(C)c(NC(=O)Nc2nccs2)c1`, the T/C reads like this: (dose: 25.0 mg/kg/injection, schedule: Q01DX009 (ip), vehicle: Klucel (hydroxypropylcellulose) (HPC)) 99 % of control; under setting [6], 90 % of control; under setting [8], 91 % of control.
In the case of `CC(=O)NS(=O)(=O)c1ccc(N=NC2C(=O)N(C(=O)c3ccccc3)N=C2C)cc1` (configuration not stated), the T/C is, setting by setting: (dose: 50.0 mg/kg/injection, schedule: Q01DX001 (ip), vehicle: Klucel (hydroxypropylcellulose) (HPC)) 93 % of control; (dose: 100.0 mg/kg/injection, schedule: Q01DX001 (ip), vehicle: Klucel (hydroxypropylcellulose) (HPC)) 95 % of control; (dose: 200.0 mg/kg/injection, schedule: Q01DX001 (ip), vehicle: Klucel (hydroxypropylcellulose) (HPC)) 93 % of control.
`CCOC(=O)C1(C(=O)OCC)CCC1`: the T/C was 100 % of control under setting [6]; 92 % of control under setting [7]; 96 % of control under setting [8]; 101 % of control (dose: 400.0 mg/kg/injection, schedule: Q01DX009 (ip), vehicle: Klucel (hydroxypropylcellulose) (HPC)).
Regarding `Cc1ccc2c(C(=O)O)cc(N)cc2n1`, the T/C reads like this: (dose: 2.0 mg/kg/injection, schedule: Q01DX005 (ip), vehicle: Klucel (hydroxypropylcellulose) (HPC)) 100 % of control; (dose: 4.0 mg/kg/injection, schedule: Q01DX005 (ip), vehicle: Klucel (hydroxypropylcellulose) (HPC)) 104 % of control; (dose: 7.5 mg/kg/injection, schedule: Q01DX005 (ip), vehicle: Klucel (hydroxypropylcellulose) (HPC)) 102 % of control; (dose: 8.0 mg/kg/injection, schedule: Q01DX005 (ip), vehicle: Klucel (hydroxypropylcellulose) (HPC)) 97 % of control.
For `CN(C)c1ccc(C2=C(c3ccccc3)C(=O)C3(c4ccccc4)CC23c2ccc(N(C)C)cc2)cc1` (configuration not stated), the T/C is, setting by setting: (dose: 50.0 mg/kg/injection, schedule: Q01DX005 (ip), vehicle: Klucel + Tween-80) 92 % of control; (dose: 100.0 mg/kg/injection, schedule: Q01DX005 (ip), vehicle: Klucel + Tween-80) 90 % of control; (dose: 200.0 mg/kg/injection, schedule: Q01DX005 (ip), vehicle: Klucel + Tween-80) 90 % of control.
Turning to `C=CCn1c(=S)[nH]c2ccccc2c1=O`, the T/C by setting is: (dose: 100.0 mg/kg/injection, schedule: Q04DX003 (ip), vehicle: saline with Tween-80) 90 % of control; (dose: 200.0 mg/kg/injection, schedule: Q04DX003 (ip), vehicle: saline with Tween-80) 90 % of control; (dose: 400.0 mg/kg/injection, schedule: Q04DX003 (ip), vehicle: saline with Tween-80) 90 % of control.
For `Oc1ccc(-c2csc(Nc3ccccn3)n2)cc1O`, the T/C (dose: 50.0 mg/kg/injection, schedule: Q01DX005 (ip), vehicle: saline with Tween-80) was 98 % of control; the T/C (dose: 100.0 mg/kg/injection, schedule: Q01DX005 (ip), vehicle: saline with Tween-80) is 106 % of control; the T/C (dose: 200.0 mg/kg/injection, schedule: Q01DX005 (ip), vehicle: saline with Tween-80) is 104 % of control.
Turning to `O=c1[nH]cc(NS(=O)(=O)c2ccc([N+](=O)[O-])cc2)c(=O)[nH]1`, the T/C is 101 % of control (dose: 60.0 mg/kg/injection, schedule: Q01DX005 (ip), vehicle: Klucel (hydroxypropylcellulose) (HPC)); 103 % of control (dose: 120.0 mg/kg/injection, schedule: Q01DX005 (ip), vehicle: Klucel (hydroxypropylcellulose) (HPC)); 108 % of control (dose: 240.0 mg/kg/injection, schedule: Q01DX005 (ip), vehicle: Klucel (hydroxypropylcellulose) (HPC)).
For `CCOC(=O)NC1=C(N2CC2)C(=O)C(NC(=O)OCC)=C(N2CC2)C1=O`, the T/C was 110 % of control (dose: 0.5 mg/kg/injection, schedule: Q01DX005 (iv), vehicle: saline); 160 % of control (dose: 2.59 mg/kg/injection, schedule: Q04DX002 (ip), vehicle: saline); 216 % of control (dose: 3.0 mg/kg/injection, schedule: Q01DX005 (ip), vehicle: saline with Tween-80); 200 % of control (dose: 4.0 mg/kg/injection, schedule: Q01DX005 (ip), vehicle: saline); 211 % of control and 259 % of control (dose: 4.9 mg/kg/injection, schedule: Q01DX005 (ip), vehicle: saline with Tween-80); 160 % of control (dose: 8.0 mg/kg/injection, schedule: Q04DX003 (iv), vehicle: saline with Tween-80). In addition, the T/C by setting is: (dose: 8.1 mg/kg/injection, schedule: Q01DX005 (ip), vehicle: saline with Tween-80) 75 % of control; (dose: 12.0 mg/kg/injection, schedule: Q04DX002 (ip), vehicle: saline) 277 % of control; (dose: 22.5 mg/kg/injection, schedule: Q01DX001 (ip), vehicle: saline with Tween-80) 62 % of control; (dose: 37.5 mg/kg/injection, schedule: Q01DX001 (ip), vehicle: saline with Tween-80) 100 % of control and 58 % of control.
For the compound `O=NNc1nc2ccccc2[nH]1`, the T/C by setting is: (dose: 3.12 mg/kg/injection, schedule: Q01DX009 (ip), vehicle: water) 99 % of control; (dose: 6.25 mg/kg/injection, schedule: Q01DX009 (ip), vehicle: water) 103 % of control; (dose: 12.5 mg/kg/injection, schedule: Q01DX009 (ip), vehicle: water) 109 % of control; (dose: 25.0 mg/kg/injection, schedule: Q01DX009 (ip), vehicle: water) 103 % of control and 98 % of control; (dose: 50.0 mg/kg/injection, schedule: Q01DX009 (ip), vehicle: water) 100 % of control and 97 % of control; (dose: 100.0 mg/kg/injection, schedule: Q01DX009 (ip), vehicle: water) 97 % of control. In addition, for the setting “dose: 200.0 mg/kg/injection, schedule: Q01DX009 (ip), vehicle: water”, the T/C is 91 % of control.
`O=c1oc(-c2ccc(Cl)cc2)nc2cc(Cl)ccc12`: the T/C is 96 % of control (dose: 6.25 mg/kg/injection, schedule: Q01DX009 (ip), vehicle: saline with Tween-80); 100 % of control (dose: 12.5 mg/kg/injection, schedule: Q01DX009 (ip), vehicle: saline with Tween-80); 100 % of control (dose: 25.0 mg/kg/injection, schedule: Q01DX009 (ip), vehicle: saline with Tween-80); 99 % of control under setting [9].
